This is an account of results in US20240409585A1, “MACROCYCLIC IMMUNOMODULATORS” (priority 2021, published 2024).

Numbered stars: 1 amine (or outer) side, 2 acyl side, 3 side chain; on linkers, the order of the positions; unused ones are H or OH. Bridge positions count the residues as written; N and C are the ends. Square brackets hold non-standard residues; d marks the D form. Peptide text beside a SMILES is read from it. * marks the point of attachment. ξ: configuration not given here. X39 = COc1cccc(-c2ccc(C[C@H](N[*:1])C(=O)[*:2])cc2)c1; Phe(4-COOH) = N[C@@H](Cc1ccc(C(=O)O)cc1)C(=O)O; Trp(7-Me) = Cc1cccc2c(C[C@H](N)C(=O)O)c[nH]c12; Bip = N[C@@H](Cc1ccc(-c2ccccc2)cc1)C(=O)O; Morpholine(3S-CO) = O=C(O)[C@@H]1COCCN1; Phe(3-Me) = Cc1cccc(C[C@H](N)C(=O)O)c1; X41 = O=C([C@H](CC1CCCNC1)N[*:1])[*:2]; 1Nal = N[C@@H](Cc1cccc2ccccc12)C(=O)O; Val(3-OH) = CC(C)(O)[C@H](N)C(=O)O; Ala(cPr) = N[C@@H](CC1CC1)C(=O)O; Cha = N[C@@H](CC1CCCCC1)C(=O)O; Ile(3ξ) = CCC(C)[C@H](N)C(=O)O; Thr(3ξ) = CC(O)[C@H](N)C(=O)O; Carboxymethyl = O=C(O)C*; NMeA = CN[C@@H](C)C(=O)O; Nle = CCCC[C@H](N)C(=O)O; Pra = C#CC[C@H](N)C(=O)O; Dab = NCC[C@H](N)C(=O)O; Dap = NC[C@H](N)C(=O)O; Propargyl = C#CC*

T1 sequence (Q15116 25-288): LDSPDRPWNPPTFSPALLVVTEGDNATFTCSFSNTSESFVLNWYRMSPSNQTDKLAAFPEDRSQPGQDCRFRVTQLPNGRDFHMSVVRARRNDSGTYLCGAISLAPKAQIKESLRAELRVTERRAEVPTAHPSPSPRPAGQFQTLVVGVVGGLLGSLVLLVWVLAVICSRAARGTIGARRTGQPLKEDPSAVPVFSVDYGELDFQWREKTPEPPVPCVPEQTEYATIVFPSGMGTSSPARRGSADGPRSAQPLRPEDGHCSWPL

This assay concerns the target T1, PE-labeled human PD-L1-Ig binding to Jurkat cell line over-expressing human PD-1 (Jurkat-PD-1) (Homo sapiens, UniProt Q15116).
T1 construct: expressed in transfected cells; host or cells: Jurkat
Nature of the assay: Jurkat-PD-1 Cell Binding High-Content Screening Assay (CBA): Method 1. The conditions noted are these: Jurkat-hPD-1 cells, PE-labeled PD-L1-Ig 20 nM final; read-out: Jurkat HPDL1 PD1 IC50 (uM) (Method 1).
On to `CCC(C)[C@@H]1NC(=O)[C@H](Cc2ccc(-c3ccccc3)cc2)NC(=O)[C@H](CC(C)C)NC(=O)[C@H](Cc2c[nH]c3ccccc23)NC(=O)[C@H](CC(=O)O)NC(=O)[C@H](Cc2ccc(OCC(=O)O)cc2)NC(=O)[C@H](C(C)O)NC(=O)CSC[C@@H](C(=O)N[C@@H](CC(N)=O)C(=O)O)NC(=O)[C@H](CN)NC(=O)[C@H](C(C)C)NC(=O)[C@H](CC(C)C)NC(=O)[C@H](CCN)NC(=O)[C@@H](CC(C)C)NC(=O)[C@H](C)N(C)C1=O` (stereo partly drawn) [Compound 2228] ({CH2CO}-[Thr(3ξ)]Y(Carboxymethyl)DWL[Bip][Ile(3ξ)][NMeA][dL][Dab]LV[Dap]CN-OH; thioether N-14), for which the IC50 is 0.12 µM. Turning to `CCCC[C@@H]1NC(=O)[C@H](CCCNC(=N)N)NC(=O)[C@@H](CC(C)C)NC(=O)[C@H](C)N(C)C(=O)[C@H](C(C)C)NC(=O)[C@H](Cc2ccc(-c3ccccc3)cc2)NC(=O)[C@H](C(C)C)NC(=O)[C@H](Cc2c[nH]c3ccccc23)NC(=O)[C@H](CC(=O)O)NC(=O)[C@H](Cc2ccc(O)cc2)NC(=O)[C@H](CN)NC(=O)CSC[C@@H](C(=O)N[C@@H](C)C(N)=O)NC(=O)[C@H]([C@@H](C)O)NC(=O)[C@H](C(C)C)NC1=O` [Compound 1500] ({CH2CO}-[Dap]YDWV[Bip]V[NMeA][dL]R[Nle]VTCA-NH2; thioether N-14), the half-maximal inhibitory concentration (IC50) was determined as 0.08 µM. In the case of `CC(C)C[C@@H]1NC(=O)[C@H](CCN)NC(=O)[C@@H](CC(C)C)NC(=O)[C@H](C)N(C)C(=O)[C@H](Cc2ccc(O)cc2)NC(=O)[C@H](Cc2ccc(-c3ccccc3)cc2)NC(=O)[C@H](C(C)C)NC(=O)[C@H](Cc2c[nH]c3ccccc23)NC(=O)[C@H](CC(=O)O)NC(=O)[C@H](Cc2ccc(O)cc2)NC(=O)[C@H](CC(N)=O)NC(=O)CSC[C@@H](C(=O)N[C@@H](C)C(N)=O)NC(=O)[C@H]([C@@H](C)O)NC(=O)[C@H](C(C)C)NC1=O` [Compound 1303] ({CH2CO}-NYDWV[Bip]Y[NMeA][dL][Dab]LVTCA-NH2; thioether N-14) it was 0.07 µM. As for `Cc1cccc(C[C@@H]2NC(=O)[C@H](CC(=O)O)NC(=O)[C@H](Cc3ccc(C(=O)O)cc3)NC(=O)[C@H](CN)NC(=O)CSC[C@@H](C(=O)N[C@@H](C)C(N)=O)NC(=O)[C@H]([C@@H](C)O)NC(=O)[C@H](C(C)C)NC(=O)[C@H](CC(C)C)NC(=O)[C@H](CCN)NC(=O)[C@@H](CC(C)C)NC(=O)[C@H](C)N(C)C(=O)[C@H](C(C)C)NC(=O)[C@H](Cc3ccc(-c4ccccc4)cc3)NC(=O)[C@H](C(C)C)NC2=O)c1` [Compound 1415] ({CH2CO}-[Dap][Phe(4-COOH)]D[Phe(3-Me)]V[Bip]V[NMeA][dL][Dab]LVTCA-NH2; thioether N-14), the 50% inhibitory concentration (IC50) was determined as 0.04 µM.

Regarding `C#CCOc1ccc(C[C@@H]2NC(=O)[C@H](CC(N)=O)NC(=O)CSC[C@@H](C(=O)N[C@@H](C)C(N)=O)NC(=O)[C@H]([C@@H](C)O)NC(=O)[C@H](C(C)C)NC(=O)[C@H](CC(C)C)NC(=O)[C@H](CCN)NC(=O)[C@@H](CC(C)C)NC(=O)[C@H](C)N(C)C(=O)[C@H](CCCNC(=N)N)NC(=O)[C@H](Cc3ccc(-c4ccccc4)cc3)NC(=O)[C@H](C(C)C)NC(=O)[C@H](Cc3c[nH]c4ccccc34)NC(=O)[C@H](CC(=O)O)NC2=O)cc1` [Compound 1208] ({CH2CO}-NY(Propargyl)DWV[Bip]R[NMeA][dL][Dab]LVTCA-NH2; thioether N-14), the 50% inhibitory concentration (IC50) was determined as 0.14 µM. In the case of `Cc1cccc(C[C@@H]2NC(=O)[C@H](CC(=O)O)NC(=O)[C@H](Cc3ccc(OCC(=O)O)cc3)NC(=O)[C@H](Cc3ccc(OCC(=O)O)cc3)NC(=O)CSC[C@@H](C(N)=O)NC(=O)[C@H](CC(N)=O)NC(=O)[C@H](C(C)C)NC(=O)[C@H](CC3CCCCC3)NC(=O)[C@H](CCN)NC(=O)[C@@H](CC(C)C)NC(=O)[C@H](C)N(C)C(=O)[C@H](Cc3ccc(OCC(=O)O)cc3)NC(=O)[C@H](Cc3ccc(-c4ccccc4)cc3)NC(=O)[C@H](Cc3ccc(OCC(=O)O)cc3)NC2=O)c1` [Compound 1653] ({CH2CO}-Y(Carboxymethyl)Y(Carboxymethyl)D[Phe(3-Me)]Y(Carboxymethyl)[Bip]Y(Carboxymethyl)[NMeA][dL][Dab][Cha]VNC-NH2; thioether N-14) it was 0.03 µM. For the molecule `CCC(C)[C@@H]1NC(=O)[C@H](Cc2ccc(-c3ccccc3)cc2)NC(=O)[C@H](C(C)C)NC(=O)[C@H](Cc2c[nH]c3ccccc23)NC(=O)[C@H](CC(=O)O)NC(=O)[C@H](Cc2ccc(O)cc2)NC(=O)[C@H](CC2CCCNC2)NC(=O)CSC[C@@H](C(=O)N[C@@H](C)C(N)=O)NC(=O)[C@H](C(C)O)NC(=O)[C@H](C(C)C)NC(=O)[C@H](CC2CCCCC2)NC(=O)[C@H](CCN)NC(=O)[C@@H](CC(C)C)NC(=O)[C@H](C)N(C)C1=O` (stereo partly drawn) [Compound 2051] ({CH2CO}-[X41]YDWV[Bip][Ile(3ξ)][NMeA][dL][Dab][Cha]V[Thr(3ξ)]CA-NH2; thioether N-14), the half-inhibitory concentration (IC50) was found to be 0.01 µM.

Regarding `CC(C)C[C@@H]1NC(=O)[C@H](CCN)NC(=O)[C@@H](CC(C)C)NC(=O)[C@@H]2COCCN2C(=O)[C@H](C(C)C)NC(=O)[C@H](Cc2ccc(-c3ccccc3)cc2)NC(=O)[C@H](C(C)C)NC(=O)[C@H](Cc2c[nH]c3ccccc23)NC(=O)[C@H](CC(=O)O)NC(=O)[C@H](Cc2ccc(O)cc2)NC(=O)[C@H](CC(N)=O)NC(=O)CSC[C@@H](C(=O)N[C@@H](C)C(N)=O)NC(=O)[C@H]([C@@H](C)O)NC(=O)[C@H](C(C)C)NC1=O` [Compound 1367] ({CH2CO}-NYDWV[Bip]V[Morpholine(3S-CO)][dL][Dab]LVTCA-NH2; thioether N-14), the IC50 came out at 0.39 µM. As for `Cc1cccc2c(C[C@@H]3NC(=O)[C@H](CC(=O)O)NC(=O)[C@H](Cc4ccc(O)cc4)NC(=O)[C@H](Cc4ccccc4)NC(=O)CSC[C@@H](C(=O)N[C@@H](C)C(N)=O)NC(=O)[C@H]([C@@H](C)O)NC(=O)[C@H](C(C)C)NC(=O)[C@H](CC(C)C)NC(=O)[C@H](CCN)NC(=O)[C@@H](CC(C)C)NC(=O)[C@H](C)N(C)C(=O)[C@H](CCCNC(=N)N)NC(=O)[C@H](Cc4ccc(-c5ccccc5)cc4)NC(=O)[C@H](C(C)C)NC3=O)c[nH]c12` [Compound 1201] ({CH2CO}-FYD[Trp(7-Me)]V[Bip]R[NMeA][dL][Dab]LVTCA-NH2; thioether N-14), the figure is 0.56 µM; as for `C#CC[C@H](NC(=O)[C@@H](C)NC(=O)[C@@H]1CSCC(=O)N[C@@H](Cc2c[nH]cn2)C(=O)N[C@@H](Cc2ccc(OCC(=O)O)cc2)C(=O)N[C@@H](CC(=O)O)C(=O)N[C@@H](Cc2c[nH]c3ccccc23)C(=O)N[C@@H](C(C)C)C(=O)N[C@@H](Cc2ccc(-c3ccccc3)cc2)C(=O)N[C@@H](C(C)C)C(=O)N(C)[C@@H](C)C(=O)N[C@H](CC(C)C)C(=O)N[C@@H](CCN)C(=O)N[C@@H](CC2CCCCC2)C(=O)N[C@@H](C(C)(C)O)C(=O)N[C@@H](CO)C(=O)N1)C(=O)O` [Compound 1943] ({CH2CO}-HY(Carboxymethyl)DWV[Bip]V[NMeA][dL][Dab][Cha][Val(3-OH)]SC[dA][Pra]-OH; thioether N-14), 0.01 µM.

Regarding `CC(C)C[C@H]1NC(=O)[C@H](C)N(C)C(=O)[C@H](CCCNC(=N)N)NC(=O)[C@H](Cc2ccc(-c3ccccc3)cc2)NC(=O)[C@H](C(C)C)NC(=O)[C@H](Cc2c[nH]c3ccccc23)NC(=O)[C@H](CC(=O)O)NC(=O)[C@H](Cc2ccc(O)cc2)NC(=O)[C@H](Cc2ccccc2)NC(=O)CSC[C@@H](C(=O)N[C@@H](C)C(N)=O)NC(=O)[C@H]([C@@H](C)O)NC(=O)[C@H](C(C)C)NC(=O)[C@H](CC2CC2)NC(=O)[C@H](CCCNC(=N)N)NC1=O` [Compound 1111] ({CH2CO}-FYDWV[Bip]R[NMeA][dL]R[Ala(cPr)]VTCA-NH2; thioether N-14), the concentration for half-maximal inhibition (IC50) is 0.07 µM. On to `COc1cccc(-c2ccc(C[C@@H]3NC(=O)[C@H](CC(C)C)NC(=O)[C@H](Cc4c[nH]c5ccccc45)NC(=O)[C@H](CC(=O)O)NC(=O)[C@H](Cc4ccc(O)cc4)NC(=O)[C@H](Cc4ccccc4)NC(=O)CSC[C@@H](C(=O)N[C@@H](C)C(N)=O)NC(=O)[C@H](CO)NC(=O)[C@H](C(C)C)NC(=O)[C@H](CC(C)C)NC(=O)[C@H](CC(N)=O)NC(=O)[C@@H](C)NC(=O)[C@H](C)N(C)C(=O)[C@H](C(C)C)NC3=O)cc2)c1` [Compound 1798] ({CH2CO}-FYDWL[X39]V[NMeA][dA]NLVSCA-NH2; thioether N-14), for which the half-inhibitory concentration (IC50) worked out at 0.17 µM.

As to `CC(C)C[C@@H]1NC(=O)[C@H](Cc2c[nH]c3ccccc23)NC(=O)[C@H](CC(=O)O)NC(=O)[C@H](Cc2cccc3ccccc23)NC(=O)[C@H](Cc2ccccc2)NC(=O)CSC[C@@H](C(=O)N[C@@H](C)C(N)=O)NC(=O)[C@H](CO)NC(=O)[C@H](C(C)C)NC(=O)[C@H](CC(C)C)NC(=O)[C@H](CC(N)=O)NC(=O)[C@@H](C)NC(=O)[C@H](C)N(C)C(=O)[C@H](C(C)C)NC(=O)[C@H](Cc2ccc(-c3ccccc3)cc2)NC1=O` [Compound 1805] ({CH2CO}-F[1Nal]DWL[Bip]V[NMeA][dA]NLVSCA-NH2; thioether N-14), the half-inhibitory concentration (IC50) is 0.23 µM.

As for `CC[C@H](C)[C@@H]1NC(=O)[C@H](Cc2ccc(-c3ccccc3)cc2)NC(=O)[C@H](C(C)(C)O)NC(=O)[C@H](Cc2cccc(C)c2)NC(=O)[C@H](CC(=O)O)NC(=O)[C@H](Cc2ccc(O)cc2)NC(=O)[C@H](CC(N)=O)NC(=O)CSC[C@@H](C(=O)N[C@@H](CCN)C(N)=O)NC(=O)[C@H](CCC(=O)O)NC(=O)[C@H](C(C)C)NC(=O)[C@H](CC2CCCCC2)NC(=O)[C@H](CCN)NC(=O)[C@@H](CC(C)C)NC(=O)[C@H](C)N(C)C1=O` [Compound 1697] ({CH2CO}-NYD[Phe(3-Me)][Val(3-OH)][Bip]I[NMeA][dL][Dab][Cha]VEC[Dab]-NH2; thioether N-14), the 50% inhibitory concentration (IC50) worked out at 0.02 µM. As for `CC(C)C[C@@H]1NC(=O)[C@H](Cc2c[nH]c3ccccc23)NC(=O)[C@H](CC(=O)O)NC(=O)[C@H](Cc2ccc(C(=O)O)cc2)NC(=O)[C@H](Cc2ccc(OCC(=O)O)cc2)NC(=O)CSC[C@@H](C(=O)N[C@@H](CO)C(N)=O)NC(=O)[C@H](CO)NC(=O)[C@H](C(C)C)NC(=O)[C@H](CC2CCCCC2)NC(=O)[C@H](CCN)NC(=O)[C@@H](CC(C)C)NC(=O)[C@H](C)N(C)C(=O)[C@H](C(C)C)NC(=O)[C@H](Cc2ccc(-c3ccccc3)cc2)NC1=O` [Compound 1913] ({CH2CO}-Y(Carboxymethyl)[Phe(4-COOH)]DWL[Bip]V[NMeA][dL][Dab][Cha]VSCS-NH2; thioether N-14), the figure is 0.01 µM.
